Laboratory results: patent publication US6355799B1, “Substituted benzene compounds, process for their preparation, and herbicidal and defoliant compositions containing them” (ISK Americas Incorporated, priority 1997, dated 2002)

Tests used:
Type in all cases: in vivo
[1] = test system: barnyardgrass (Echinochloa crus-galli, ECHCG); assay: Post-emerge test, greenhouse herbicide activity screening; details: post-emerge; for ECHCG phytotoxicity rating: 14 days after application, rating scale 0-100; for Post-emerge Herbicidal Activity ECHCG: phytotoxicity rating 0-100 at 14 days after application
How it was run: (§1)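 Rating: 0–100 visual injury, 14 DAA. Application: acetone, 187 l/ha, 15–1000 g ai/ha, flat-fan track sprayer with nozzle 40–45 cm above soil or canopy. Post-emerge runs used 0.25% v/v surfactant on 2–3 leaf plants.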

[2] = test system: redroot pigweed (Amaranthus retroflexus, AMARE); assay: as above; details: post-emerge; for AMARE phytotoxicity rating: 14 days after application, rating scale 0-100; for Post-emerge Herbicidal Activity AMARE: phytotoxicity rating 0-100 at 14 days after application
How it was run: as §1

[3] = test system: johnsongrass (Sorghum halepense, SORHA); assay: as above; details: post-emerge; for SORHA phytotoxicity rating: 14 days after application, rating scale 0-100; for Post-emerge Herbicidal Activity SORHA: phytotoxicity rating 0-100 at 14 days after application
How it was run: as §1

[4] = test system: large crabgrass (Digitaria sanguinalis, DIGSA); assay: as above; details: post-emerge; for DIGSA phytotoxicity rating: 14 days after application, rating scale 0-100; for Post-emerge Herbicidal Activity DIGSA: phytotoxicity rating 0-100 at 14 days after application
How it was run: as §1

[5] = test system: velvetleaf (Abutilon theophrasti, ABUTH); assay: as above; details: post-emerge; for ABUTH phytotoxicity rating: 14 days after application, rating scale 0-100; for Post-emerge Herbicidal Activity ABUTH: phytotoxicity rating 0-100 at 14 days after application
How it was run: as §1

[6] = test system: green foxtail (Setaria viridis, SETVI); assay: as above; details: post-emerge; for SETVI phytotoxicity rating: 14 days after application, rating scale 0-100; for Post-emerge Herbicidal Activity SETVI: phytotoxicity rating 0-100 at 14 days after application
How it was run: as §1

[7] = test system: lambsquarters (Chenopodium album, CHEAL); assay: as above; details: post-emerge; for CHEAL phytotoxicity rating: 14 days after application, rating scale 0-100; for Post-emerge Herbicidal Activity CHEAL: phytotoxicity rating 0-100 at 14 days after application
How it was run: as §1

[8] = test system: sicklepod (Cassia obtusifolia, CASOB); assay: as above; details: post-emerge; for CASOB phytotoxicity rating: 14 days after application, rating scale 0-100; for Post-emerge Herbicidal Activity CASOB: phytotoxicity rating 0-100 at 14 days after application
How it was run: as §1

[9] = test system: ivyleaf morningglory (Ipomoea hederacea, IPOHE); assay: as above; details: post-emerge; for IPOHE phytotoxicity rating: 14 days after application, rating scale 0-100; for Post-emerge Herbicidal Activity IPOHE: phytotoxicity rating 0-100 at 14 days after application
How it was run: as §1

[10] = test system: barnyardgrass (Echinochloa crus-galli, ECHCG); assay: Pre-emerge test, greenhouse herbicide activity screening; details: pre-emerge; for phytotoxicity rating ECHCG: 14 days after application, scale 0-100; for Pre-emerge Herbicidal Activity ECHCG: phytotoxicity rating 0-100 at 14 days after application
How it was run: (§2)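 Visual ratings on a 0-100 scale (0 no damage, 100 all plants dead) were taken at 14 days after treatment. Rates of 15-1000 g ai/ha in acetone, 187 l/ha, were sprayed onto soil one day after planting (pre-emerge) or onto 2-3 leaf plants with 0.25% v/v surfactant (post-emerge).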

[11] = test system: johnsongrass (Sorghum halepense, SORHA); assay: as above; details: pre-emerge; for phytotoxicity rating SORHA: 14 days after application, scale 0-100; for Pre-emerge Herbicidal Activity SORHA: phytotoxicity rating 0-100 at 14 days after application
How it was run: as §2

[12] = test system: large crabgrass (Digitaria sanguinalis, DIGSA); assay: as above; details: pre-emerge; for phytotoxicity rating DIGSA: 14 days after application, scale 0-100; for Pre-emerge Herbicidal Activity DIGSA: phytotoxicity rating 0-100 at 14 days after application
How it was run: as §2

[13] = test system: velvetleaf (Abutilon theophrasti, ABUTH); assay: as above; details: pre-emerge; for phytotoxicity rating ABUTH: 14 days after application, scale 0-100; for Pre-emerge Herbicidal Activity ABUTH: phytotoxicity rating 0-100 at 14 days after application
How it was run: as §2

[14] = test system: green foxtail (Setaria viridis, SETVI); assay: as above; details: pre-emerge; for phytotoxicity rating SETVI: 14 days after application, scale 0-100; for Pre-emerge Herbicidal Activity SETVI: phytotoxicity rating 0-100 at 14 days after application
How it was run: as §2

[15] = test system: lambsquarters (Chenopodium album, CHEAL); assay: as above; details: pre-emerge; for phytotoxicity rating CHEAL: 14 days after application, scale 0-100; for Pre-emerge Herbicidal Activity CHEAL: phytotoxicity rating 0-100 at 14 days after application
How it was run: as §2

[16] = test system: sicklepod (Cassia obtusifolia, CASOB); assay: as above; details: pre-emerge; for phytotoxicity rating CASOB: 14 days after application, scale 0-100; for Pre-emerge Herbicidal Activity CASOB: phytotoxicity rating 0-100 at 14 days after application
How it was run: as §2

[17] = test system: ivyleaf morningglory (Ipomoea hederacea, IPOHE); assay: as above; details: pre-emerge; for phytotoxicity rating IPOHE: 14 days after application, scale 0-100; for Pre-emerge Herbicidal Activity IPOHE: phytotoxicity rating 0-100 at 14 days after application
How it was run: as §2

[18] = test system: upland rice (Oryza sp., var. Tebonnet, RICE); assay: Post-emerge test, crop safety; details: post-emerge; for RICE phytotoxicity rating (crop damage): 14 days after application, rating scale 0-100; for Post-emerge Herbicidal Activity RICE: crop damage rating 0-100 at 14 days after application
How it was run: as §2

[19] = test system: field corn (Zea mays L., var. Dekalb 535, CORN); assay: Post-emerge test, crop safety; details: post-emerge; for CORN phytotoxicity rating (crop damage): 14 days after application, rating scale 0-100; for Post-emerge Herbicidal Activity CORN: crop damage rating 0-100 at 14 days after application
How it was run: as §2

[20] = test system: upland rice (Oryza sp., var. Tebonnet, RICE); assay: Pre-emerge test, crop safety; details: pre-emerge; for phytotoxicity rating RICE (crop damage): 14 days after application, scale 0-100; for Pre-emerge Herbicidal Activity RICE: crop damage, phytotoxicity rating 0-100 at 14 days after application
How it was run: as §2

[21] = test system: field corn (Zea mays L., var. Dekalb 535, CORN); assay: Pre-emerge test, crop safety; details: pre-emerge; for phytotoxicity rating CORN (crop damage): 14 days after application, scale 0-100; for Pre-emerge Herbicidal Activity CORN: crop damage, phytotoxicity rating 0-100 at 14 days after application
How it was run: as §2

[22] = test system: redroot pigweed (Amaranthus retroflexus, AMARE); assay: Pre-emerge test, greenhouse herbicide activity screening; details: pre-emerge; for phytotoxicity rating AMARE: 14 days after application, scale 0-100; for Pre-emerge Herbicidal Activity AMARE: phytotoxicity rating 0-100 at 14 days after application
How it was run: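 Compounds in acetone were track-sprayed at 187 l/ha, 15–1000 g ai/ha, onto sandy loam pots. Pre-emerge seeds were sown one day before spraying, with surface watering afterwards. Post-emerge plants were at the 2–3 leaf stage and sprayed with 0.25% v/v non-ionic surfactant. Injury was rated 0–100 at 14 days.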

COc1cc2ccccc2cc1C(=O)Nc1c(OC)c(Cl)cc(F)c1-n1c(=O)cc(C(F)(F)F)n(C)c1=O [2-152]
30: ECHCG phytotoxicity rating ([1]; 63 g ai/ha) | DIGSA phytotoxicity rating ([4]; 250 g ai/ha) | SETVI phytotoxicity rating ([6]; 63 g ai/ha) | phytotoxicity rating SORHA ([11]; 250 g ai/ha) | phytotoxicity rating SETVI ([14]; 63 g ai/ha) | CORN phytotoxicity rating (crop damage) ([19]; 250 g ai/ha) | phytotoxicity rating RICE (crop damage) ([20]; 250 g ai/ha)
10: phytotoxicity rating ECHCG ([10]; 63 g ai/ha)
0: phytotoxicity rating SORHA ([11]; 63 g ai/ha) | phytotoxicity rating CASOB ([16]; 63 g ai/ha) | phytotoxicity rating IPOHE ([17]; 63 g ai/ha) | phytotoxicity rating IPOHE ([17]; 250 g ai/ha) | phytotoxicity rating RICE (crop damage) ([20]; 63 g ai/ha) | phytotoxicity rating CORN (crop damage) ([21]; 63 g ai/ha) | phytotoxicity rating CORN (crop damage) ([21]; 250 g ai/ha)
70: phytotoxicity rating ECHCG ([10]; 250 g ai/ha) | phytotoxicity rating SETVI ([14]; 250 g ai/ha)
50: ECHCG phytotoxicity rating ([1]; 250 g ai/ha) | SETVI phytotoxicity rating ([6]; 250 g ai/ha) | phytotoxicity rating DIGSA ([12]; 63 g ai/ha) | phytotoxicity rating CASOB ([16]; 250 g ai/ha)
90: phytotoxicity rating ABUTH ([13]; 250 g ai/ha)
20: SORHA phytotoxicity rating ([3]; 63 g ai/ha) | DIGSA phytotoxicity rating ([4]; 63 g ai/ha)
80: phytotoxicity rating DIGSA ([12]; 250 g ai/ha)
40: SORHA phytotoxicity rating ([3]; 250 g ai/ha) | RICE phytotoxicity rating (crop damage) ([18]; 63 g ai/ha)
98: CHEAL phytotoxicity rating ([7]; 63 g ai/ha)
65: RICE phytotoxicity rating (crop damage) ([18]; 250 g ai/ha)
100: AMARE phytotoxicity rating ([2]; 63 g ai/ha) | AMARE phytotoxicity rating ([2]; 250 g ai/ha) | ABUTH phytotoxicity rating ([5]; 63 g ai/ha) | ABUTH phytotoxicity rating ([5]; 250 g ai/ha) | CHEAL phytotoxicity rating ([7]; 250 g ai/ha) | CASOB phytotoxicity rating ([8]; 63 g ai/ha) | CASOB phytotoxicity rating ([8]; 250 g ai/ha) | IPOHE phytotoxicity rating ([9]; 63 g ai/ha) | IPOHE phytotoxicity rating ([9]; 250 g ai/ha) | phytotoxicity rating CHEAL ([15]; 250 g ai/ha) | phytotoxicity rating AMARE ([22]; 63 g ai/ha) | phytotoxicity rating AMARE ([22]; 250 g ai/ha)
60: phytotoxicity rating ABUTH ([13]; 63 g ai/ha)
15: CORN phytotoxicity rating (crop damage) ([19]; 63 g ai/ha)
95: phytotoxicity rating CHEAL ([15]; 63 g ai/ha)

Cc1c(Cl)cc(F)c(-n2c(=O)cc(C(F)(F)F)n(C)c2=O)c1NC(=O)OCc1ccc([N+](=O)[O-])cc1 [4-64]
60: Post-emerge Herbicidal Activity CASOB ([8]; 63 g ai/ha)
80: Post-emerge Herbicidal Activity SETVI ([6]; 250 g ai/ha) | Pre-emerge Herbicidal Activity SORHA ([11]; rate 250 g ai/ha) | Pre-emerge Herbicidal Activity RICE ([20]; rate 250 g ai/ha)
100: Post-emerge Herbicidal Activity AMARE ([2]; 63 g ai/ha) | Post-emerge Herbicidal Activity AMARE ([2]; 250 g ai/ha) | Post-emerge Herbicidal Activity ABUTH ([5]; 63 g ai/ha) | Post-emerge Herbicidal Activity ABUTH ([5]; 250 g ai/ha) | Post-emerge Herbicidal Activity CHEAL ([7]; 63 g ai/ha) | Post-emerge Herbicidal Activity CHEAL ([7]; 250 g ai/ha) | Post-emerge Herbicidal Activity CASOB ([8]; 250 g ai/ha) | Post-emerge Herbicidal Activity IPOHE ([9]; 63 g ai/ha) | Post-emerge Herbicidal Activity IPOHE ([9]; 250 g ai/ha) | Pre-emerge Herbicidal Activity DIGSA ([12]; rate 63 g ai/ha) | Pre-emerge Herbicidal Activity DIGSA ([12]; rate 250 g ai/ha) | Pre-emerge Herbicidal Activity ABUTH ([13]; rate 63 g ai/ha) | Pre-emerge Herbicidal Activity ABUTH ([13]; rate 250 g ai/ha) | Pre-emerge Herbicidal Activity SETVI ([14]; rate 63 g ai/ha) | Pre-emerge Herbicidal Activity SETVI ([14]; rate 250 g ai/ha) | Pre-emerge Herbicidal Activity CHEAL ([15]; rate 63 g ai/ha) | Pre-emerge Herbicidal Activity CHEAL ([15]; rate 250 g ai/ha) | Pre-emerge Herbicidal Activity AMARE ([22]; rate 63 g ai/ha) | Pre-emerge Herbicidal Activity AMARE ([22]; rate 250 g ai/ha)
10: Post-emerge Herbicidal Activity SORHA ([3]; 63 g ai/ha) | Post-emerge Herbicidal Activity DIGSA ([4]; 63 g ai/ha)
15: Post-emerge Herbicidal Activity RICE ([18]; 63 g ai/ha)
90: Pre-emerge Herbicidal Activity CASOB ([16]; rate 250 g ai/ha)
30: Post-emerge Herbicidal Activity ECHCG ([1]; 250 g ai/ha) | Post-emerge Herbicidal Activity SORHA ([3]; 250 g ai/ha) | Post-emerge Herbicidal Activity DIGSA ([4]; 250 g ai/ha) | Pre-emerge Herbicidal Activity ECHCG ([10]; rate 63 g ai/ha) | Post-emerge Herbicidal Activity CORN ([19]; 63 g ai/ha) | Pre-emerge Herbicidal Activity RICE ([20]; rate 63 g ai/ha)
70: Pre-emerge Herbicidal Activity ECHCG ([10]; rate 250 g ai/ha) | Pre-emerge Herbicidal Activity IPOHE ([17]; rate 250 g ai/ha)
50: Post-emerge Herbicidal Activity SETVI ([6]; 63 g ai/ha) | Post-emerge Herbicidal Activity RICE ([18]; 250 g ai/ha)
20: Post-emerge Herbicidal Activity ECHCG ([1]; 63 g ai/ha) | Pre-emerge Herbicidal Activity CASOB ([16]; rate 63 g ai/ha)
45: Pre-emerge Herbicidal Activity CORN ([21]; rate 250 g ai/ha)
0: Pre-emerge Herbicidal Activity CORN ([21]; rate 63 g ai/ha)
40: Pre-emerge Herbicidal Activity SORHA ([11]; rate 63 g ai/ha) | Pre-emerge Herbicidal Activity IPOHE ([17]; rate 63 g ai/ha) | Post-emerge Herbicidal Activity CORN ([19]; 250 g ai/ha)
